In US10520507B2, “Methods for determining the risk of cardiovascular disease in a subject having a chronic viral infection through the measurement of lysophosphatidic acid” (CASE WESTERN RESERVE UNIVERSITY, priority 2014, dated 2019):

Legend:
[1] = tested on: CD3+ CD4+ and CD3+ CD8+ T cells in PBMC; assay: LPA induced T cell activation assay (HLADR and CD38 co-expression, flow cytometry); type: cell-based, human; settings: 100 uM LPA
Experimental: FIGS. 4(A-B) are a series of charts showing LPA dependent T cell activation. 500,000 PBMC from 5 healthy controls and 3 untreated HIV infected subjects were cultured overnight in the absence or presence of PHA, followed by 3 days of culture in media or 100 uM LPA. Proportion of CD3^+ CD4^+ (Panel A) and CD3^+ CD8^+ (Panel B) T cells that express of HLA DR and CD38 are shown. Statistical analysis shown for all 8 subjects combined. Comparisons between presence and absence of LPA in PHA pre-treated healthy control CD4 and CD8 activation were also significant (P=0.04, P=0.04).
To determine whether LPA can directly contribute to immune activation we have conducted LPA induced T cell activation assays using HLADR and CD38 co-expression as a readout (FIG. 4).

monocytes = assay: In vitro monocyte activation by LPA; type: cell-based
ENPP2 = ENPP2 (Mus musculus, UniProt Q9R1E6); parameters: species or system mice; settings: in vivo, 30 mg/kg

Question: Which “T cell activation (HLADR and CD38 co-expression)” value ([1]; PBMC from healthy controls and untreated HIV infected subjects, 4 day culture, with or without PHA) does the source give for lysophosphatidic acid [LPA] here?
Answer: The value was “enhanced T cell activation”.

Question: What about the “Activation in the CD4 compartment” value ([1]; regardless of pre-activation, more robust with PHA pre-activation) of the same compound?
Answer: The value was “Activation was observed”.

Question: And the Monocyte activation (monocytes)?
Answer: The Monocyte activation was “activated monocytes”.

Question: Which “Reversal of deleterious effect on T cell function and neoantigen response” value (ENPP2) does the source give for O=C(CCN1CCN(C(=O)OCc2cc(Cl)cc(Cl)c2)CC1)c1ccc2[nH]c(=O)oc2c1 [PF-8380] here?
Answer: The value was “at least partially reversed”.
